According to patent publication US20230158108A1 (priority 2020, published 2023):
Entries after “also recorded” stand apart in the source; their conditions may differ. Like-named read-outs stand apart in the source and are kept apart here.

Tests used:
healthy neutrophils = type: cell-based, human; settings: healthy neutrophils pretreated
[1] = tested on: LPS-induced acute lung inflammation; type: in vivo; settings: LPS-induced acute lung inflammation model; nNIF given IP
Excerpt: Thus, nNIF can reduce NETs similar to an FDA approved drug, such as dexamethasone.

[2] = tested on: PMNs isolated from healthy adults; assay: NET formation in healthy adult PMNs induced by COVID-19 patient plasma (confocal microscopy, cell-free DNA fluorescence assay); type: cell-based, human; settings: peptide 1 nM, 1-hour preincubation, undiluted COVID-19 plasma 2 hours
experimental sepsis = settings: models of experimental sepsis; cited from earlier work
[3] = tested on: PMNs isolated from healthy adults; assay: poly (I:C)-induced NETosis in PMNs from healthy adults; type: cell-based, human; settings: poly (I:C) 1 μg/mL, 2 hours
[4] = tested on: PMNs isolated from COVID-19 patients; assay: poly (I:C)-induced NETosis in PMNs from COVID-19 patients; type: cell-based, human; settings: poly (I:C) 1 μg/mL, 2 hours

In the case of “KAVLTIDEKGTEAAGAMFLEAIPMSIPPEVKFNKPFVFLMIEQNTKSPLFMGKVVNPTQK (listed as Homo sapiens) [nNIF]”, the “Inhibition of COVID-19 plasma induced NETosis” value (healthy neutrophils; high-inducing pooled plasma (>3-fold induction)) is reported as “clearly observed”, the “Inhibition of COVID-19 plasma induced NETosis” value (healthy neutrophils; medium-inducing pooled plasma (2-3 fold induction)) is reported as “clearly observed” and the “In vivo efficacy: NETs or cells undergoing early NETosis (cytospin)” value [1] is reported as “very good efficacy”. For the same substance, the “NETosis induced in vitro by COVID-19 plasma” value [2] was “significantly decreases NETosis; also recorded: inhibits NETs induced by COVID-19 plasma”, the Disease severity (experimental sepsis) was “decreased disease severity” and the NETosis (experimental sepsis) was “decrease in NETosis”. The Survival (experimental sepsis) was “improved survival”.
In the case of poly (I:C), the “NETosis induction in vitro” value [3] is reported as “induces NETosis” and the “Increase in NETosis compared to elevated baseline levels” value [4] is reported as 2 fold.
